Measured values taken from PubChem BioAssay (NCI).
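The concentration for 50% growth inhibition is given as GI50. TGI marks complete inhibition of growth.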

Assays:
Assay in all cases: NCI-60 cell line screen, 384-well format
HCT-15 colon = tested on: HCT-15 colon
A549 NSCLC = tested on: A549 NSCLC
OVCAR-4 ovarian = tested on: OVCAR-4 ovarian
NCI-H226 lung = tested on: NCI-H226 lung
HT29 colon = tested on: HT29 colon
NCI-H522 lung = tested on: NCI-H522 lung
PC-3 prostate = tested on: PC-3 prostate
OVCAR-3 ovarian = tested on: OVCAR-3 ovarian
HOP-62 NSCLC = tested on: HOP-62 NSCLC
K-562 leukemia = tested on: K-562 leukemia
BT-549 breast = tested on: BT-549 breast
NCI/ADR-RES ovarian = tested on: NCI/ADR-RES ovarian
OVCAR-8 ovarian = tested on: OVCAR-8 ovarian
SK-OV-3 ovarian = tested on: SK-OV-3 ovarian
SNB-75 CNS = tested on: SNB-75 CNS
A498 renal = tested on: A498 renal
HOP-92 NSCLC = tested on: HOP-92 NSCLC
MDA-MB-435 melanoma = tested on: MDA-MB-435 melanoma
EKVX NSCLC = tested on: EKVX NSCLC
RXF 393 renal = tested on: RXF 393 renal
786-0 renal = tested on: 786-0 renal
SF-295 CNS = tested on: SF-295 CNS
DU-145 prostate = tested on: DU-145 prostate
MDA-MB-231 breast = tested on: MDA-MB-231 breast
HCC-2998 colon = tested on: HCC-2998 colon
ACHN renal = tested on: ACHN renal
CAKI-1 renal = tested on: CAKI-1 renal
SR leukemia = tested on: SR leukemia
MCF7 breast = tested on: MCF7 breast
SK-MEL-5 melanoma = tested on: SK-MEL-5 melanoma
MALME-3M melanoma = tested on: MALME-3M melanoma
CCRF-CEM leukemia = tested on: CCRF-CEM leukemia
TK-10 renal = tested on: TK-10 renal
NCI-H460 NSCLC = tested on: NCI-H460 NSCLC
HCT-116 colon = tested on: HCT-116 colon
U251 glioblastoma = tested on: U251 glioblastoma
IGROV1 ovarian = tested on: IGROV1 ovarian
UACC-257 melanoma = tested on: UACC-257 melanoma
LOX IMVI melanoma = tested on: LOX IMVI melanoma
T-47D breast = tested on: T-47D breast
MOLT-4 leukemia = tested on: MOLT-4 leukemia
MDA-MB-468 breast = tested on: MDA-MB-468 breast
HL-60(TB) leukemia = tested on: HL-60(TB) leukemia
SF-268 CNS = tested on: SF-268 CNS
KM12 colon = tested on: KM12 colon
UACC-62 melanoma = tested on: UACC-62 melanoma
SN12C renal = tested on: SN12C renal
SNB-19 CNS = tested on: SNB-19 CNS
NCI-H322M lung = tested on: NCI-H322M lung
COLO 205 colon = tested on: COLO 205 colon
OVCAR-5 ovarian = tested on: OVCAR-5 ovarian
RPMI-8226 leukemia = tested on: RPMI-8226 leukemia
SW-620 colon = tested on: SW-620 colon
SK-MEL-2 melanoma = tested on: SK-MEL-2 melanoma
NCI-H23 lung = tested on: NCI-H23 lung
M14 melanoma = tested on: M14 melanoma
SK-MEL-28 melanoma = tested on: SK-MEL-28 melanoma
HS 578T breast = tested on: HS 578T breast
SF-539 CNS = tested on: SF-539 CNS

## Nc1ccn([C@@H]2C(F)=C(CO)[C@@H](O)[C@H]2O)c(=O)n1
HCT-15 colon
  GI50: 1.09 µM
  TGI: > 100 µM
A549 NSCLC
  GI50: 0.461 µM
  TGI: > 35.6 µM
OVCAR-4 ovarian
  GI50: 23.5 µM
  TGI: > 100 µM
NCI-H226 lung
  GI50: 13.5 µM
  TGI: > 100 µM
HT29 colon
  GI50: 0.922 µM
  TGI: > 42.7 µM
NCI-H522 lung
  GI50: 0.539 µM
  TGI: 57.3 µM
PC-3 prostate
  GI50: 5.23 µM
  TGI: > 78.7 µM
OVCAR-3 ovarian
  GI50: 4.47 µM
  TGI: > 100 µM
HOP-62 NSCLC
  GI50: 1.26 µM
  TGI: 31.5 µM
K-562 leukemia
  GI50: 0.474 µM
  TGI: > 100 µM
BT-549 breast
  GI50: 25.4 µM
  TGI: > 100 µM
NCI/ADR-RES ovarian
  GI50: 0.882 µM
  TGI: 4.3 µM
OVCAR-8 ovarian
  GI50: 0.704 µM
  TGI: > 23.9 µM
SK-OV-3 ovarian
  GI50: 5.57 µM
  TGI: > 59.6 µM
SNB-75 CNS
  GI50: 12.3 µM
  TGI: > 100 µM
A498 renal
  GI50: 1.51 µM
  TGI: 13.6 µM
HOP-92 NSCLC
  GI50: 0.745 µM
  TGI: 5.65 µM
MDA-MB-435 melanoma
  GI50: 0.967 µM
  TGI: > 100 µM
EKVX NSCLC
  GI50: 33.5 µM
  TGI: > 100 µM
RXF 393 renal
  GI50: 2.34 µM
  TGI: > 72.1 µM
786-0 renal
  GI50: 1.09 µM
  TGI: > 100 µM
SF-295 CNS
  GI50: 2.84 µM
  TGI: > 92.8 µM
DU-145 prostate
  GI50: 0.396 µM
  TGI: 1.81 µM
MDA-MB-231 breast
  GI50: 1.32 µM
  TGI: > 93.8 µM
HCC-2998 colon
  GI50: 1.71 µM
  TGI: > 100 µM
ACHN renal
  GI50: 0.923 µM
  TGI: > 73.1 µM
CAKI-1 renal
  GI50: 0.383 µM
SR leukemia
  GI50: 0.183 µM
  TGI: 0.344 µM
MCF7 breast
  GI50: 1.02 µM
  TGI: > 100 µM
SK-MEL-5 melanoma
  GI50: 7.7 µM
  TGI: 68.5 µM
MALME-3M melanoma
  GI50: 4.43 µM
  TGI: > 100 µM
CCRF-CEM leukemia
  GI50: 0.825 µM
  TGI: 2.59 µM
TK-10 renal
  GI50: 0.689 µM
  TGI: > 100 µM
NCI-H460 NSCLC
  GI50: 0.361 µM
  TGI: 5.46 µM
HCT-116 colon
  GI50: 0.409 µM
  TGI: 21.4 µM
U251 glioblastoma
  GI50: 2.78 µM
  TGI: > 100 µM
IGROV1 ovarian
  GI50: 3.95 µM
  TGI: > 100 µM
UACC-257 melanoma
  GI50: 28.2 µM
  TGI: > 96.5 µM
LOX IMVI melanoma
  GI50: 0.791 µM
  TGI: 12 µM
T-47D breast
  GI50: 10.7 µM
  TGI: > 100 µM
MOLT-4 leukemia
  GI50: 0.182 µM
  TGI: 0.338 µM
MDA-MB-468 breast
  GI50: 38.4 µM
  TGI: > 100 µM
HL-60(TB) leukemia
  GI50: 0.374 µM
  TGI: 0.979 µM
SF-268 CNS
  GI50: 2.7 µM
  TGI: > 100 µM
KM12 colon
  GI50: 2.14 µM
  TGI: > 100 µM
UACC-62 melanoma
  GI50: 3.87 µM
  TGI: > 100 µM
SN12C renal
  GI50: 0.5 µM
  TGI: 4.9 µM
SNB-19 CNS
  GI50: 3.37 µM
  TGI: > 100 µM
NCI-H322M lung
  GI50: 5.74 µM
  TGI: > 100 µM
COLO 205 colon
  GI50: 0.775 µM
  TGI: 3.96 µM
OVCAR-5 ovarian
  GI50: 1.02 µM
  TGI: > 28.3 µM
RPMI-8226 leukemia
  GI50: 0.292 µM
  TGI: 0.922 µM
SW-620 colon
  GI50: 0.893 µM
  TGI: > 50.7 µM
SK-MEL-2 melanoma
  GI50: 19.8 µM
  TGI: > 100 µM
NCI-H23 lung
  GI50: 3.07 µM
  TGI: 13.1 µM
M14 melanoma
  GI50: 0.763 µM
  TGI: > 21.2 µM
SK-MEL-28 melanoma
  GI50: 1.25 µM
  TGI: > 100 µM
HS 578T breast
  GI50: 13.4 µM
  TGI: > 100 µM
SF-539 CNS
  GI50: 1.61 µM
  TGI: > 100 µM
